The nature of series [1]: Hepatic metabolic stability (rat liver microsome method). Type of series: in vitro ADME. The following applies: rat liver microsomes 0.5 mg/mL, test substance 1 μM, NADPH 1 mM, 37° C., 30 minutes. In outline:
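Scored by % parent left after 30 min (30 min/0 min ×100, LC-MS), banded A ≥75%, B 60–<75%, C 45–<60%, D <45%. Incubation: 1 μM compound, 0.5 mg/mL rat microsomes, pH 7.4 phosphate buffer, 37° C, 5 min preincubation, NADPH 1 mM started, acetonitrile quench.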
A general note: Liver microsomes are vesicles of endoplasmic reticulum, rich in cytochrome P450 enzymes.

Series [2] deals with PDE4. As to the kind of experiment: Evaluation of PDE4 inhibitory activity, scintillation proximity assay. Type of series: biochemical. The following applies: scintillation proximity assay; read-out: PDE4 Inhibitory Activity (Evaluation 1; concentration for the inhibition rate of 50%). In short, it runs like this: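 IC50 was derived from inhibition curves, referenced to an enzyme-free blank and a DMSO-only control. Compound, PDE4 preparation and tritiated cAMP reacted 120 min at RT in Tris-HCl buffer (pH 7.4) with MgCl2, EGTA and BSA; YSi-SPA beads with ZnSO4 bound product before scintillation counting.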

Each structure is given as a SMILES string.

Take `C[S+]([O-])c1ccc(-c2nccs2)c2oc(N3CC4CC(C3)N4)nc12` (centres unmarked) [Example 346, 2-(3,6-Diazabicyclo[3.1.1]heptan-3-yl)-4-(methylsulfinyl)-7-(thiazol-2-yl)benzo[d]oxazole]: the “Residual ratio (% remaining for 30-minute reaction)” value in series [1] is “A (A: a % remaining rate of 75% or more)”. For the same compound, the IC50 in series [2] was under 100 nM.

Turning to `CS(=O)(=O)c1ccc(-c2nccs2)c2oc(N3CC4CC(C3)N4)nc12` [Example 347, 2-(3,6-Diazabicyclo[3.1.1]heptan-3-yl)-4-(methylsulfonyl)-7-(thiazol-2-yl)benzo[d]oxazole], the “Residual ratio (% remaining for 30-minute reaction)” value in series [1] is listed as “A (A: a % remaining rate of 75% or more)”. In series [2], the IC50 was under 100 nM.

On to `OCCSc1ccc(-c2nccs2)c2oc(N3CC4CC(C3)N4)nc12` [Example 348, 2-((2-(3,6-Diazabicyclo[3.1.1]heptan-3-yl)-7-(thiazol-2-yl)benzo[d]oxazol-4-yl)thio)ethan-1-ol], for which, in series [1], the “Residual ratio (% remaining for 30-minute reaction)” value was “B (B: 60% or more and less than 75%)”. Moreover, the IC50 in series [2] is under 100 nM.

`[O-][S+](CCO)c1ccc(-c2nccs2)c2oc(N3CC4CC(C3)N4)nc12` (centres unmarked) [Example 349, 2-((2-(3,6-Diazabicyclo[3.1.1]heptan-3-yl)-7-(thiazol-2-yl)benzo[d]oxazol-4-yl)sulfinyl)ethan-1-ol]: the “Residual ratio (% remaining for 30-minute reaction)” value in series [1] was “A (A: a % remaining rate of 75% or more)”. Besides, in series [2], the IC50 was under 100 nM.

With `O=S(=O)(CCO)c1ccc(-c2nccs2)c2oc(N3CC4CC(C3)N4)nc12` [Example 350, 2-((2-(3,6-Diazabicyclo[3.1.1]heptan-3-yl)-7-(thiazol-2-yl)benzo[d]oxazol-4-yl)sulfonyl)ethan-1-ol], in series [1], the “Residual ratio (% remaining for 30-minute reaction)” value was “A (A: a % remaining rate of 75% or more)”. The IC50 in series [2] was under 100 nM.

As to `CS(=O)(=O)c1ccc(Oc2ccc(-c3nccs3)c3oc(N4CC5CC(C4)N5)nc23)nc1` [Example 352, 2-(3,6-Diazabicyclo[3.1.1]heptan-3-yl)-4-((5-(methylsulfonyl)pyridin-2-yl)oxy)-7-(thiazol-2-yl)benzo[d]oxazole], the “Residual ratio (% remaining for 30-minute reaction)” value in series [1] is reported as “A (A: a % remaining rate of 75% or more)”. The IC50 in series [2] was under 100 nM.

Regarding `COCCNC(=O)c1ccc(-c2nccs2)c2oc(N3CC4CC(C3)N4)nc12` [Example 353, 2-(3,6-Diazabicyclo[3.1.1]heptan-3-yl)-N-(2-methoxyethyl)-7-(thiazol-2-yl)benzo[d]oxazole-4-carboxamide], the “Residual ratio (% remaining for 30-minute reaction)” value in series [1] is “A (A: a % remaining rate of 75% or more)”. In series [2], the IC50 is under 100 nM.

With `NC(=O)c1ccc(-c2nccs2)c2oc(N3CC4CC(C3)N4)nc12` [Example 354, 2-(3,6-Diazabicyclo[3.1.1]heptan-3-yl)-7-(thiazol-2-yl)benzo[d]oxazole-4-carboxamide], in series [1], the “Residual ratio (% remaining for 30-minute reaction)” value is “A (A: a % remaining rate of 75% or more)”. Moreover, the IC50 in series [2] was under 100 nM.

As for `O=C(NCCO)c1ccc(-c2nccs2)c2oc(N3CC4CC(C3)N4)nc12` [Example 355, 2-(3,6-Diazabicyclo[3.1.1]heptan-3-yl)-N-(2-hydroxyethyl)-7-(thiazol-2-yl)benzo[d]oxazole-4-carboxamide], the “Residual ratio (% remaining for 30-minute reaction)” value in series [1] is reported as “A (A: a % remaining rate of 75% or more)”. Besides, the IC50 in series [2] is under 100 nM.

Take `CN(CCO)C(=O)c1ccc(-c2nccs2)c2oc(N3CC4CC(C3)N4)nc12` [Example 356, 2-(3,6-Diazabicyclo[3.1.1]heptan-3-yl)-N-(2-hydroxyethyl)-N-methyl-7-(thiazol-2-yl)benzo[d]oxazole-4-carboxamide]: the “Residual ratio (% remaining for 30-minute reaction)” value in series [1] was “A (A: a % remaining rate of 75% or more)”. For the same compound, the IC50 in series [2] lay in the range of 100 to 1000 nM.

For `O=C(NC1CC1)c1ccc(-c2nccs2)c2oc(N3CC4CC(C3)N4)nc12` [Example 357, 2-(3,6-Diazabicyclo[3.1.1]heptan-3-yl)-N-cyclopropyl-7-(thiazol-2-yl)benzo[d]oxazole-4-carboxamide], the “Residual ratio (% remaining for 30-minute reaction)” value in series [1] is “A (A: a % remaining rate of 75% or more)”. In series [2], the IC50 is under 100 nM.

On to `CCNC(=O)c1ccc(-c2nccs2)c2oc(N3CC4CC(C3)N4)nc12` [Example 358, 2-(3,6-Diazabicyclo[3.1.1]heptan-3-yl)-N-ethyl-7-(thiazol-2-yl)benzo[d]oxazole-4-carboxamide], for which, in series [1], the “Residual ratio (% remaining for 30-minute reaction)” value was “A (A: a % remaining rate of 75% or more)”. For the same compound, the IC50 in series [2] was under 100 nM.

Turning to `O=C(c1ccc(-c2nccs2)c2oc(N3CC4CC(C3)N4)nc12)N1CCOCC1` [Example 359, (2-(3,6-Diazabicyclo[3.1.1]heptan-3-yl)-7-(thiazol-2-yl)benzo[d]oxazol-4-yl) (morpholino)methanone], the “Residual ratio (% remaining for 30-minute reaction)” value in series [1] is listed as “A (A: a % remaining rate of 75% or more)”. In series [2], the IC50 was 100 to 1000 nM.

Regarding `O=C(c1ccc(-c2nccs2)c2oc(N3CC4CC(C3)N4)nc12)N1CCCC1` [Example 360, (2-(3,6-Diazabicyclo[3.1.1]heptan-3-yl)-7-(thiazol-2-yl)benzo[d]oxazol-4-yl) (pyrrolidin-1-yl)methanone], the “Residual ratio (% remaining for 30-minute reaction)” value in series [1] is listed as “A (A: a % remaining rate of 75% or more)”. The IC50 in series [2] lay in the range of 100 to 1000 nM.

For `CC(C)(O)C(F)(F)Oc1ccc(-c2ccc(Cl)cn2)c2oc(N3CC4CC(C3)N4)nc12` [Example 363, 1-((2-(3,6-Diazabicyclo[3.1.1]heptan-3-yl)-7-(5-chloropyridin-2-yl)benzo[d]oxazol-4-yl)oxy)-1,1-difluoro-2-methylpropan-2-ol], in series [1], the “Residual ratio (% remaining for 30-minute reaction)” value is listed as “A (A: a % remaining rate of 75% or more)”. The IC50 in series [2] was under 100 nM.

Consider `c1csc(-c2ccc(N3CCOCC3)c3nc(N4CC5CC(C4)N5)oc23)n1` [Example 369, 2-(3,6-Diazabicyclo[3.1.1]heptan-3-yl)-4-morpholino-7-(thiazol-2-yl)benzo[d]oxazole], for which the “Residual ratio (% remaining for 30-minute reaction)” value in series [1] was “B (B: 60% or more and less than 75%)”. Also, the IC50 in series [2] is under 100 nM.

With `OCC(O)C(F)(F)Oc1ccc(-c2nccs2)c2oc(N3CC4CC(C3)N4)nc12` (centres unmarked) [Example 370, 3-((2-(3,6-Diazabicyclo[3.1.1]heptan-3-yl)-7-(thiazol-2-yl)benzo[d]oxazol-4-yl)oxy)-3,3-difluoropropane-1,2-diol], the “Residual ratio (% remaining for 30-minute reaction)” value in series [1] was “A (A: a % remaining rate of 75% or more)”. Also, the IC50 in series [2] was under 100 nM.

For `OCC(F)(F)Oc1ccc(-c2nccs2)c2oc(N3CC4CC(C3)N4O)nc12` [Example 374, 3-(4-(1,1-Difluoro-2-hydroxyethoxy)-7-(thiazol-2-yl)benzo[d]oxazol-2-yl)-3,6-diazabicyclo[3.1.1]heptan-6-ol], the “Residual ratio (% remaining for 30-minute reaction)” value in series [1] is “B (B: 60% or more and less than 75%)”. Moreover, the IC50 in series [2] is under 100 nM.

`OCc1cccnc1Oc1ccc(-c2nccs2)c2oc(N3CC4CC(C3)N4)nc12` [Example 376, (2-((2-(3,6-Diazabicyclo[3.1.1]heptan-3-yl)-7-(thiazol-2-yl)benzo[d]oxazol-4-yl)oxy)pyridin-3-yl)methanol]: the “Residual ratio (% remaining for 30-minute reaction)” value in series [1] is recorded as “A (A: a % remaining rate of 75% or more)”. In addition, in series [2], the IC50 was under 100 nM.

As to `c1cc(-c2nccs2)c2oc(N3CC4CC(C3)N4)nc2c1` [Example 382, 2-(3,6-Diazabicyclo[3.1.1]heptan-3-yl)-7-(thiazol-2-yl)benzo[d]oxazole], the “Residual ratio (% remaining for 30-minute reaction)” value in series [1] is “B (B: 60% or more and less than 75%)”. Besides, in series [2], the IC50 is under 100 nM.

Regarding `O=S(=O)(NCCO)c1ccc(-c2nccs2)c2oc(N3CC4CC(C3)N4)nc12` [Example 385, 2-(3,6-Diazabicyclo[3.1.1]heptan-3-yl)-N-(2-hydroxyethyl)-7-(thiazol-2-yl)benzo[d]oxazole-4-sulfonamide], in series [1], the “Residual ratio (% remaining for 30-minute reaction)” value was “A (A: a % remaining rate of 75% or more)”. For the same compound, the IC50 in series [2] was under 100 nM.

As for `COCCNS(=O)(=O)c1ccc(-c2nccs2)c2oc(N3CC4CC(C3)N4)nc12` [Example 387, 2-(3,6-Diazabicyclo[3.1.1]heptan-3-yl)-N-(2-methoxyethyl)-7-(thiazol-2-yl)benzo[d]oxazole-4-sulfonamide], the “Residual ratio (% remaining for 30-minute reaction)” value in series [1] was “A (A: a % remaining rate of 75% or more)”. The IC50 in series [2] was under 100 nM.

On to `O=S(=O)(c1ccc(-c2nccs2)c2oc(N3CC4CC(C3)N4)nc12)N1CCOCC1` [Example 391, 2-(3,6-Diazabicyclo[3.1.1]heptan-3-yl)-4-(morpholinosulfonyl)-7-(thiazol-2-yl)benzo[d]oxazole], for which the “Residual ratio (% remaining for 30-minute reaction)” value in series [1] is “B (B: 60% or more and less than 75%)”. Also, the IC50 in series [2] is under 100 nM.

Regarding `COCC(F)(F)Oc1ccc(-c2nccs2)c2oc(N3CC4CC(C3)N4)nc12` [Example 392, 2-(3,6-Diazabicyclo[3.1.1]heptan-3-yl)-4-(1,1-difluoro-2-methoxyethoxy)-7-(thiazol-2-yl)benzo[d]oxazole], in series [1], the “Residual ratio (% remaining for 30-minute reaction)” value was “B (B: 60% or more and less than 75%)”. The IC50 in series [2] was under 100 nM.

Turning to `Cn1ccc(-c2ccc(OC(F)(F)C(C)(C)O)c3nc(N4CC5CC(C4)N5)oc23)n1` [Example 394, 1-((2-(3,6-Diazabicyclo[3.1.1]heptan-3-yl)-7-(1-methyl-1H-pyrazol-3-yl)benzo[d]oxazol-4-yl)oxy)-1,1-difluoro-2-methylpropan-2-ol], the “Residual ratio (% remaining for 30-minute reaction)” value in series [1] is reported as “A (A: a % remaining rate of 75% or more)”. In addition, the IC50 in series [2] lay within 100 to 1000 nM.
